Assay results as given in publication PMC8185074, “Anchor extension: a structure-guided approach to design cyclic peptides targeting enzyme active sites” (Nature Communications, 2021).
Peptide text beside a SMILES is read from it.

Legend:
Format in all cases: biochemical
HDAC3 = target: T1, HDAC3 (Homo sapiens, UniProt O15379); test: HDAC3 inhibition, full IC50 measurement (Reaction Biology; fluorogenic p53 peptide RHKK(Ac)AMC)
T1 construct: purchased Reaction Biology Corporation (assay run by the CRO)
T1 sequence (O15379 whole entry): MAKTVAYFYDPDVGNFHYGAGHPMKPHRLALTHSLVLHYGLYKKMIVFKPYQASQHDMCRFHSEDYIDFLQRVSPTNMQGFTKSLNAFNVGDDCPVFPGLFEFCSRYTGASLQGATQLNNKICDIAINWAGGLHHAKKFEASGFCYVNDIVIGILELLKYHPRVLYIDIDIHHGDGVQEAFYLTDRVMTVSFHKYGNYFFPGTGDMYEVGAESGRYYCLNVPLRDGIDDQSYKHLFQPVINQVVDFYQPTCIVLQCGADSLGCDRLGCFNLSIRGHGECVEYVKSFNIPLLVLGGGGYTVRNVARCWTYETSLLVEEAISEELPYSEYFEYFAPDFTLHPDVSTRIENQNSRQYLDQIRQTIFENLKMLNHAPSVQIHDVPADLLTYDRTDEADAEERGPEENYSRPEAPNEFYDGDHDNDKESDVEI
T1 sequence (Q9Y618 395-489 partner limits assumed): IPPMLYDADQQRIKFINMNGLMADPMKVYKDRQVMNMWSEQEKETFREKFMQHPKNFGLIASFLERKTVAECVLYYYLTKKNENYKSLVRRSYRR
How it was run: (§1)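 Reaction: enzyme plus acoustically dispensed peptide inhibitor, 50 μM RHKK(Ac)AMC substrate, pH 8.0 Tris buffer with BSA and 1% DMSO, 1 h, 30 °C. Duplicates averaged.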

HDAC6 = target: T2, HDAC6 (Homo sapiens, UniProt Q9UBN7); test: HDAC6 inhibition, full IC50 measurement (Reaction Biology; fluorogenic p53 peptide RHKK(Ac)AMC)
T2 construct: purchased Reaction Biology Corporation (assay run by the CRO)
T2 sequence (Q9UBN7 1-1215): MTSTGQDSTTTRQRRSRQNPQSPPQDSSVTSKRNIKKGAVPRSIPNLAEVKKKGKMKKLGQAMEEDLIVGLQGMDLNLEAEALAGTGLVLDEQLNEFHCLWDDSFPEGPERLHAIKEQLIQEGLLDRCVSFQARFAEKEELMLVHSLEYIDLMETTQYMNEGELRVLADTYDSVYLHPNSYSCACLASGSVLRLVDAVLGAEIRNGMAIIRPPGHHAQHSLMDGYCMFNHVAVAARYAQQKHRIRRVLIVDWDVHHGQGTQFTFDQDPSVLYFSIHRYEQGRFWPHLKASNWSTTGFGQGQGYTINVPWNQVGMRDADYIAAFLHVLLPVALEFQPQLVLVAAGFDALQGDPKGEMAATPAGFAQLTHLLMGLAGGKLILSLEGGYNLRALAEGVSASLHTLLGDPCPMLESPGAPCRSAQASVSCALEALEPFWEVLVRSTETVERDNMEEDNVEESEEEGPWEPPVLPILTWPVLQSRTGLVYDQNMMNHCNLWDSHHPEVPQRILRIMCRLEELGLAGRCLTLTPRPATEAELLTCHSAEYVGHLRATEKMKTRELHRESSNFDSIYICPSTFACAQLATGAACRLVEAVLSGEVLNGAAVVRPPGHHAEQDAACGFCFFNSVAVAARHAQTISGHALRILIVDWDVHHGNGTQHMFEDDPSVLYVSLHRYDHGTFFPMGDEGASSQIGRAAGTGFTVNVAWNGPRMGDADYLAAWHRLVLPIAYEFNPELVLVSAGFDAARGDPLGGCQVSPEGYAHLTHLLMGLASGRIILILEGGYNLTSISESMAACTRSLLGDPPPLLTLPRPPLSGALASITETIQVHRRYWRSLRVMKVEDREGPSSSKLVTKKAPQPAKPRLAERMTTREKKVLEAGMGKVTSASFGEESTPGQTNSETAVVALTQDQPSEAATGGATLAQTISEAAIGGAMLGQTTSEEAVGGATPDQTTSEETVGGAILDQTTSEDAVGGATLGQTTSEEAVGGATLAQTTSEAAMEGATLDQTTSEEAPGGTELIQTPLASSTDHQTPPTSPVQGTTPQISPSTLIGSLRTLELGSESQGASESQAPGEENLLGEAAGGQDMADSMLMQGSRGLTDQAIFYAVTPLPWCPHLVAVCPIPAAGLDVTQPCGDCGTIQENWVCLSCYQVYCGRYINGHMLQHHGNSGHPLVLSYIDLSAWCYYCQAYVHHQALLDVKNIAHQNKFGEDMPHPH
How it was run: as §1

HDAC8 = target: T3, HDAC8 (Homo sapiens, UniProt Q9BY41); test: HDAC8 inhibition, full IC50 measurement (Reaction Biology; fluorogenic p53 peptide RHKK(Ac)AMC); details: t1/t2 replicates
T3 construct: purchased Reaction Biology Corporation (assay run by the CRO)
T3 sequence (Q9BY41 1-377): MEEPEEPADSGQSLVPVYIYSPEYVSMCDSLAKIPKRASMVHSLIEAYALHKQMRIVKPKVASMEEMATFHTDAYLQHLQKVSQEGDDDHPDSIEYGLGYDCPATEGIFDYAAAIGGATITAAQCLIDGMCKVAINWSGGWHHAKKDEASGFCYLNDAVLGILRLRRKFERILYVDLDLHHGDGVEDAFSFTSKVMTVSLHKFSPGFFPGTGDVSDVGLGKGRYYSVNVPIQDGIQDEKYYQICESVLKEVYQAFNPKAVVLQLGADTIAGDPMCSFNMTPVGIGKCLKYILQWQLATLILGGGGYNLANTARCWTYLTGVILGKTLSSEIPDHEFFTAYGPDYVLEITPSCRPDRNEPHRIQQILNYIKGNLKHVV
How it was run: as §1

NCCCC[C@H]1NC(=O)[C@H](CCC(N)=O)NC(=O)[C@H](CCC(=O)O)NC(=O)[C@@H]2CCCN2C(=O)[C@H](CC(N)=O)NC(=O)[C@H](CCCCCS)NC(=O)CNC(=O)[C@H](Cc2c[nH]c3ccccc23)NC1=O [des1.1.1, SHA-Asn-Pro-Glu-Gln-dLys-Trp-Gly] (HELM PEPTIDE1{E.Q.[dK].W.G.[O=C([C@H](CCCCCS)N[*:1])[*:2]].N.P}$PEPTIDE1,PEPTIDE1,1:R1-8:R2$$$V2.0)
HDAC3 activity raw data (signal) (HDAC3; Conc. 1.00E-05 M, t1): 45806
HDAC3 activity raw data (signal) (HDAC3; Conc. 1.00E-05 M, t2): 14609
HDAC3 activity raw data (signal) (HDAC3; Conc. 1.11E-06 M, t1): 200334
HDAC3 activity raw data (signal) (HDAC3; Conc. 1.11E-06 M, t2): 152988
HDAC3 activity raw data (signal) (HDAC3; Conc. 1.23E-07 M, t1): 623414
HDAC3 activity raw data (signal) (HDAC3; Conc. 1.23E-07 M, t2): 515219
HDAC3 activity raw data (signal) (HDAC3; Conc. 1.37E-08 M, t1): 834270
HDAC3 activity raw data (signal) (HDAC3; Conc. 1.37E-08 M, t2): 1063632
HDAC3 activity raw data (signal) (HDAC3; Conc. 1.52E-09 M, t1): 943875
HDAC3 activity raw data (signal) (HDAC3; Conc. 1.52E-09 M, t2): 1416606
HDAC3 activity raw data (signal) (HDAC3; Conc. 3.33E-06 M, t1): 128090
HDAC3 activity raw data (signal) (HDAC3; Conc. 3.33E-06 M, t2): 52786
HDAC3 activity raw data (signal) (HDAC3; Conc. 3.70E-07 M, t1): 393148
HDAC3 activity raw data (signal) (HDAC3; Conc. 3.70E-07 M, t2): 276336
HDAC3 activity raw data (signal) (HDAC3; Conc. 4.12E-08 M, t1): 758574
HDAC3 activity raw data (signal) (HDAC3; Conc. 4.12E-08 M, t2): 884895
HDAC3 activity raw data (signal) (HDAC3; Conc. 4.57E-09 M, t1): 936051
HDAC3 activity raw data (signal) (HDAC3; Conc. 4.57E-09 M, t2): 1217433
HDAC3 activity raw data (signal) (HDAC3; Conc. 5.08E-10 M, t1): 935427
HDAC3 activity raw data (signal) (HDAC3; Conc. 5.08E-10 M, t2): 1315263
HDAC6 activity raw data (signal) (HDAC6; Conc. 1.00E-05 M, t1): 2105
HDAC6 activity raw data (signal) (HDAC6; Conc. 1.11E-06 M, t1): 66521
HDAC6 activity raw data (signal) (HDAC6; Conc. 1.11E-06 M, t2): 22362
HDAC6 activity raw data (signal) (HDAC6; Conc. 1.23E-07 M, t1): 195275
HDAC6 activity raw data (signal) (HDAC6; Conc. 1.23E-07 M, t2): 111620
HDAC6 activity raw data (signal) (HDAC6; Conc. 1.37E-08 M, t1): 384422
HDAC6 activity raw data (signal) (HDAC6; Conc. 1.37E-08 M, t2): 355429
HDAC6 activity raw data (signal) (HDAC6; Conc. 1.52E-09 M, t1): 513045
HDAC6 activity raw data (signal) (HDAC6; Conc. 1.52E-09 M, t2): 553965
HDAC6 activity raw data (signal) (HDAC6; Conc. 3.33E-06 M, t1): 30608
HDAC6 activity raw data (signal) (HDAC6; Conc. 3.70E-07 M, t1): 121302
HDAC6 activity raw data (signal) (HDAC6; Conc. 3.70E-07 M, t2): 45275
HDAC6 activity raw data (signal) (HDAC6; Conc. 4.12E-08 M, t1): 327835
HDAC6 activity raw data (signal) (HDAC6; Conc. 4.12E-08 M, t2): 217932
HDAC6 activity raw data (signal) (HDAC6; Conc. 4.57E-09 M, t1): 470518
HDAC6 activity raw data (signal) (HDAC6; Conc. 4.57E-09 M, t2): 472349
HDAC6 activity raw data (signal) (HDAC6; Conc. 5.08E-10 M, t1): 541421
HDAC6 activity raw data (signal) (HDAC6; Conc. 5.08E-10 M, t2): 570888
HDAC8 activity raw data (signal) (HDAC8; peptide conc. 1.00E-05 M, listed as des1.1.1_t1): 258617
HDAC8 activity raw data (signal) (HDAC8; peptide conc. 1.00E-05 M, listed as des1.1.1_t2): 8333740
HDAC8 activity raw data (signal) (HDAC8; peptide conc. 1.11E-06 M, listed as des1.1.1_t1): 532680
HDAC8 activity raw data (signal) (HDAC8; peptide conc. 1.11E-06 M, listed as des1.1.1_t2): 26455057
HDAC8 activity raw data (signal) (HDAC8; peptide conc. 1.23E-07 M, listed as des1.1.1_t1): 587120
HDAC8 activity raw data (signal) (HDAC8; peptide conc. 1.23E-07 M, listed as des1.1.1_t2): 38904462
HDAC8 activity raw data (signal) (HDAC8; peptide conc. 1.37E-08 M, listed as des1.1.1_t1): 802422
HDAC8 activity raw data (signal) (HDAC8; peptide conc. 1.37E-08 M, listed as des1.1.1_t2): 44804049
HDAC8 activity raw data (signal) (HDAC8; peptide conc. 1.52E-09 M, listed as des1.1.1_t1): 956971
HDAC8 activity raw data (signal) (HDAC8; peptide conc. 1.52E-09 M, listed as des1.1.1_t2): 49754188
HDAC8 activity raw data (signal) (HDAC8; peptide conc. 3.33E-06 M, listed as des1.1.1_t1): 289575
HDAC8 activity raw data (signal) (HDAC8; peptide conc. 3.33E-06 M, listed as des1.1.1_t2): 18105294
HDAC8 activity raw data (signal) (HDAC8; peptide conc. 3.70E-07 M, listed as des1.1.1_t1): 559845
HDAC8 activity raw data (signal) (HDAC8; peptide conc. 3.70E-07 M, listed as des1.1.1_t2): 34440414
HDAC8 activity raw data (signal) (HDAC8; peptide conc. 4.12E-08 M, listed as des1.1.1_t1): 916202
HDAC8 activity raw data (signal) (HDAC8; peptide conc. 4.12E-08 M, listed as des1.1.1_t2): 43441318
HDAC8 activity raw data (signal) (HDAC8; peptide conc. 4.57E-09 M, listed as des1.1.1_t1): 928568
HDAC8 activity raw data (signal) (HDAC8; peptide conc. 4.57E-09 M, listed as des1.1.1_t2): 47580068
HDAC8 activity raw data (signal) (HDAC8; peptide conc. 5.08E-10 M, listed as des1.1.1_t1): 688133
HDAC8 activity raw data (signal) (HDAC8; peptide conc. 5.08E-10 M, listed as des1.1.1_t2): 50930211
